From ChEMBL document CHEMBL5316344, “Homologation of the Alkyl Side Chain of Antimitotic Phenyl 4-(2-Oxo-3-alkylimidazolidin-1-yl)benzenesulfonate Prodrugs Selectively Targeting CYP1A1-Expressing Breast Cancers Improves Their Stability in Rodent Liver Microsomes” (J Med Chem, 2023) come the findings set out here.

Structures are written as SMILES. pIC50: −log10 of the molar value.

One data set relates to MCF7. Kind of data set: Antiproliferative activity against human MCF7 cells expressing CYP1A1 assessed as cell growth inhibition incubated for 48 hrs by sulforhodamine B assay. The note with it: MCF7, 48 h. In kind it is functional, cell-based.
A further data set concerns HT-29. Nature of the data set: Antiproliferative activity against human HT-29 cells assessed as cell growth inhibition incubated for 48 hrs by sulforhodamine B assay. The class given is functional, cell-based. The note with it: HT-29, 48 h.
Another data set concerns M21. Kind of data set: Antiproliferative activity against human M21 cells assessed as cell growth inhibition incubated for 48 hrs by sulforhodamine B assay. In kind it is functional, cell-based. The note with it: M21, 48 h.
Data set [1] in a line: Selectivity ratio, ratio of IC50 for antiproliferative activity against human HT-29 cells to IC50 for antiproliferative activity against human MCF7 cells expressing CYP1A1. In kind it is functional.
Data set [2] can be described thus: Selectivity ratio, ratio of IC50 for antiproliferative activity against human M21 cells to IC50 for antiproliferative activity against human MCF7 cells expressing CYP1A1. In kind it is functional.
The nature of data set [3]: Stability in human liver microsomes assessed as half life incubated for 60 mins by HPLC analysis. In kind it is ADME, Microsome.
Data set [4] can be described thus: Stability in human liver microsomes assessed as intrinsic clearance incubated for 60 mins by HPLC analysis. Particulars: read-out: CLH. The class given is ADME, Microsome.
Data set [5] in a line: Stability in mouse liver microsomes assessed as intrinsic clearance incubated for 60 mins by HPLC analysis. The class given is ADME, Microsome. The note with it: read-out: CLH.
Data set [6] is described as follows: Stability in mouse liver microsomes assessed as half life incubated for 60 mins by HPLC analysis. In kind it is ADME, Microsome.
The nature of data set [7]: Stability in rat liver microsomes assessed as half life incubated for 60 mins by HPLC analysis. In kind it is ADME, Microsome.
Data set [8] in a line: Stability in rat liver microsomes assessed as intrinsic clearance incubated for 60 mins by HPLC analysis. The class given is ADME, Microsome. The note with it: read-out: CLH.

For `CCCCCCCCN1CCN(c2ccc(S(=O)(=O)Oc3cc(OC)cc(OC)c3)cc2)C1=O`, the pIC50 in the data set on MCF7, in the data set on HT-29 and in the data set with M21 was under 5.60 in each case.

Turning to `CCCCCCCCN1CCN(c2ccc(S(=O)(=O)Oc3cccc(F)c3)cc2)C1=O`, the pIC50 with MCF7, in the data set on HT-29 and in the data set with M21 was under 5.90 in each case.

In the case of `CCCCCN1CCN(c2ccc(S(=O)(=O)Oc3ccccc3OC)cc2)C1=O`, the pIC50 in the data set on MCF7, in the data set with HT-29 and with M21 was under 4.90 in each case.

Consider `CCCCCN1CCN(c2ccc(S(=O)(=O)Oc3cccc(F)c3)cc2)C1=O`, for which the results for the pIC50 with MCF7, with HT-29 and in the data set with M21 were 5.92, under 4.90 and under 4.90, respectively. Further, the “Ratio IC50” value in data set [1] and in [2] was over 10 throughout.

In the case of `CCCCCCN1CCN(c2ccc(S(=O)(=O)Oc3ccc(OC)cc3)cc2)C1=O`, the pIC50 in the data set on MCF7, in the data set with HT-29 and with M21 was under 5.90 throughout.

Turning to `CCCCCN1CCN(c2ccc(S(=O)(=O)Oc3ccc(F)c(F)c3)cc2)C1=O`, the pIC50 in the data set on MCF7, with HT-29 and in the data set on M21 was under 4.90 throughout.

On to `CCCCCCCCN1CCN(c2ccc(S(=O)(=O)Oc3cc(F)cc(F)c3)cc2)C1=O`, for which the pIC50 in the data set with MCF7, with HT-29 and in the data set with M21 was under 5.90 throughout.

`CCCCCCCCN1CCN(c2ccc(S(=O)(=O)Oc3cc(Cl)cc(Cl)c3)cc2)C1=O`: the pIC50 with MCF7, with HT-29 and in the data set on M21 was under 5.90 in each case.

In the case of `CCCCN1CCN(c2ccc(S(=O)(=O)Oc3cc(OC)cc(OC)c3)cc2)C1=O`, the values for the half-life in data set [3], in [6] and in data set [7] were 1.12 h, 0.175 h and 1.55 h, respectively. The microsomal CLint in [4] was 20.7 µL/min/mg; in [5], 133 µL/min/mg; in data set [8], 15 µL/min/mg.

As for `CCCCCCN1CCN(c2ccc(S(=O)(=O)Oc3ccc(F)c(F)c3)cc2)C1=O`, the pIC50 with MCF7, in the data set on HT-29 and with M21 was under 5.60 in each case.

Take `CCCCCCN1CCN(c2ccc(S(=O)(=O)Oc3ccccc3OC)cc2)C1=O`: the pIC50 in the data set on MCF7, in the data set with HT-29 and in the data set with M21 was under 5.60 each time.

Consider `CCCCCCN1CCN(c2ccc(S(=O)(=O)Oc3cccc(OC)c3)cc2)C1=O`, for which the pIC50 in the data set on MCF7, with HT-29 and in the data set on M21 was under 5.60 in each case.

`CCCCCCCCN1CCN(c2ccc(S(=O)(=O)Oc3cc(OC)c(OC)c(OC)c3)cc2)C1=O`: the pIC50 with MCF7, in the data set with HT-29 and with M21 was under 5.90 throughout.

On to `CCCCCN1CCN(c2ccc(S(=O)(=O)Oc3cccc(Br)c3)cc2)C1=O`, for which the figures for the pIC50 in the data set with MCF7, in the data set on HT-29 and with M21 were 6.52, under 4.90 and under 4.90, respectively. Besides, the “Ratio IC50” value in data set [1] and in data set [2] was over 42 in each case.

For `CCCCCCCCN1CCN(c2ccc(S(=O)(=O)Oc3ccc(OC)c(OC)c3)cc2)C1=O`, the pIC50 with MCF7, in the data set on HT-29 and in the data set on M21 was under 5.90 in each case.

With `CCCCCCN1CCN(c2ccc(S(=O)(=O)Oc3cccc(Br)c3)cc2)C1=O`, the pIC50 in the data set on MCF7, in the data set with HT-29 and with M21 was under 5.90 throughout.

On to `CCCCCCN1CCN(c2ccc(S(=O)(=O)Oc3cccc(I)c3)cc2)C1=O`, for which the pIC50 in the data set with MCF7 is 5.96; in the data set on HT-29, under 5.90; in the data set on M21 it was under 5.90. Moreover, the “Ratio IC50” value in [1] and in data set [2] was over 1.1 in each case.

Take `CCCCCN1CCN(c2ccc(S(=O)(=O)Oc3ccc(OC)c(OC)c3)cc2)C1=O`: the pIC50 in the data set on MCF7 is 6.15; in the data set on HT-29, under 4.90; in the data set on M21 it was 6.30. For the same compound, the “Ratio IC50” value in [1] and in data set [2] was over 18 throughout.

On to `CCCCCCN1CCN(c2ccc(S(=O)(=O)Oc3cccc(F)c3)cc2)C1=O`, for which the pIC50 in the data set on MCF7, in the data set on HT-29 and in the data set with M21 was under 5.60 in each case.

`CCCCCN1CCN(c2ccc(S(=O)(=O)Oc3ccc(OC)cc3)cc2)C1=O`: the pIC50 in the data set on MCF7, in the data set on HT-29 and in the data set with M21 was under 4.90 each time.

`CCCCCN1CCN(c2ccc(S(=O)(=O)Oc3cc(Br)cc(Br)c3)cc2)C1=O`: the pIC50 with MCF7, with HT-29 and in the data set on M21 was under 6.30 each time.

Regarding `CCCCCCCCN1CCN(c2ccc(S(=O)(=O)Oc3cc(Br)cc(Br)c3)cc2)C1=O`, the pIC50 in the data set with MCF7, in the data set on HT-29 and with M21 was under 5.90 in each case.

Take `CCCCCCCCN1CCN(c2ccc(S(=O)(=O)Oc3cccc(OC)c3)cc2)C1=O`: the pIC50 in the data set with MCF7, with HT-29 and in the data set on M21 was under 5.60 in each case.

As to `CCCCCN1CCN(c2ccc(S(=O)(=O)Oc3cc(F)cc(F)c3)cc2)C1=O`, the results for the pIC50 in the data set with MCF7, with HT-29 and in the data set on M21 were 6.00, under 4.90 and under 4.90, respectively. The “Ratio IC50” value in data set [1] and in [2] was over 13 in each case.

Take `CCCCCN1CCN(c2ccc(S(=O)(=O)Oc3cccc(OC)c3)cc2)C1=O`: the pIC50 in the data set on MCF7 was 6.59; in the data set with HT-29 it was under 4.90; with M21 it was under 4.90. Also, the “Ratio IC50” value in data set [1] and in data set [2] was over 48 throughout.

As for `CCCCN1CCN(c2ccc(S(=O)(=O)Oc3cccc(I)c3)cc2)C1=O`, the half-life worked out at 1.67 h in data set [3], 0.205 h in data set [6] and 0.212 h in data set [7]. For the same compound, the microsomal CLint in [4] came to 14 µL/min/mg; in [5], 109 µL/min/mg; in [8], 109 µL/min/mg.

With `CCCCCCCCN1CCN(c2ccc(S(=O)(=O)Oc3ccccc3OC)cc2)C1=O`, the pIC50 in the data set on MCF7, in the data set on HT-29 and in the data set on M21 was under 5.60 throughout.

With `CCCCCCN1CCN(c2ccc(S(=O)(=O)Oc3cc(Cl)cc(Cl)c3)cc2)C1=O`, the pIC50 was 6.60 in the data set with MCF7, under 5.90 in the data set on HT-29 and under 5.90 in the data set with M21. The “Ratio IC50” value in data set [1] and in [2] was over 5 in each case.

For the compound `CCCCCCN1CCN(c2ccc(S(=O)(=O)Oc3ccccc3)cc2)C1=O`, the negative-log IC50 (pIC50) in the data set on MCF7, with HT-29 and with M21 was under 5.60 each time.

As to `CCCN1CCN(c2ccc(S(=O)(=O)Oc3cc(OC)c(OC)c(OO)c3)cc2)C1=O`, the half-life in data set [3] was determined as 1.82 h; in data set [6], 0.133 h; in [7], 1.18 h. The microsomal CLint in data set [4] was 13 µL/min/mg; in data set [5], 174 µL/min/mg; in data set [8], 19.5 µL/min/mg.

For the compound `CCCCCCCCN1CCN(c2ccc(S(=O)(=O)Oc3ccccc3)cc2)C1=O`, the pIC50 in the data set with MCF7, in the data set with HT-29 and in the data set with M21 was under 5.90 in each case.

Take `CCCCCCN1CCN(c2ccc(S(=O)(=O)Oc3cc(OC)c(OC)c(OC)c3)cc2)C1=O`: the pIC50 with MCF7 is 6.85; in the data set on HT-29, under 5.60; in the data set on M21, under 5.60. In addition, the “Ratio IC50” value in data set [1] and in data set [2] was over 18 throughout.

Take `CCCCCCCCN1CCN(c2ccc(S(=O)(=O)Oc3ccc(F)c(F)c3)cc2)C1=O`: the pIC50 with MCF7, in the data set with HT-29 and in the data set on M21 was under 5.90 throughout.

Regarding `CCCCCCCCN1CCN(c2ccc(S(=O)(=O)Oc3ccc(OC)cc3)cc2)C1=O`, the pIC50 in the data set on MCF7, with HT-29 and in the data set on M21 was under 5.90 throughout.

For `CCCCCCN1CCN(c2ccc(S(=O)(=O)Oc3ccc(OC)c(OC)c3)cc2)C1=O`, the pIC50 in the data set on MCF7, in the data set on HT-29 and in the data set with M21 was under 5.90 in each case.

As for `CCCCCCCCN1CCN(c2ccc(S(=O)(=O)Oc3cccc(I)c3)cc2)C1=O`, the pIC50 in the data set with MCF7, with HT-29 and with M21 was under 5.90 throughout.

`CCCCCN1CCN(c2ccc(S(=O)(=O)Oc3ccccc3)cc2)C1=O`: the pIC50 in the data set with MCF7, with HT-29 and with M21 was under 4.60 throughout.

In the case of `CCCCCCN1CCN(c2ccc(S(=O)(=O)Oc3cc(OC)cc(OC)c3)cc2)C1=O`, the pIC50 in the data set on MCF7, in the data set on HT-29 and in the data set with M21 was under 5.90 in each case.

As for `CCCCCCCCN1CCN(c2ccc(S(=O)(=O)Oc3cccc(Cl)c3)cc2)C1=O`, the pIC50 in the data set on MCF7, with HT-29 and in the data set on M21 was under 5.90 throughout.

As to `CCCCCCN1CCN(c2ccc(S(=O)(=O)Oc3cc(Br)cc(Br)c3)cc2)C1=O`, the figures for the pIC50 with MCF7, with HT-29 and in the data set on M21 were 6.92, under 5.90 and 6.14, respectively. The “Ratio IC50” value in [1] is given as over 10; in data set [2], 6.1.

Take `CCCCCCCCN1CCN(c2ccc(S(=O)(=O)Oc3cccc(Br)c3)cc2)C1=O`: the pIC50 with MCF7, with HT-29 and in the data set with M21 was under 5.90 each time.

In the case of `CCCCCCN1CCN(c2ccc(S(=O)(=O)Oc3cc(F)cc(F)c3)cc2)C1=O`, the pIC50 is 6.40 in the data set on MCF7, under 5.60 in the data set with HT-29 and under 5.60 in the data set with M21. For the same compound, the “Ratio IC50” value in data set [1] and in [2] was over 6.3 in each case.

As to `CCCCCCN1CCN(c2ccc(S(=O)(=O)Oc3cccc(Cl)c3)cc2)C1=O`, the pIC50 is 5.74 in the data set on MCF7, under 5.60 in the data set on HT-29 and under 5.60 in the data set with M21. Further, the “Ratio IC50” value in data set [1] and in data set [2] was over 1.4 throughout.
